Patent US12552772B2, “2-pyrazole anilines and related analogs for inhibiting YAP/TAZ-TEAD” (KATHOLIEKE UNIVERSITEIT LEUVEN, priority 2021, dated 2026)

Tested on: YAP/TAZ-TEAD transcription
Assay: Reporter gene assay for measuring the inhibition of YAP/TAZ-TEAD transcription (TEAD-responsive element luciferase reporter in Hek293T cells)
Format: cell-based
Details: Homo sapiens, HEK-293T, 24 hours incubation
Procedure: Hek293T cells are cultured in DMEM supplemented with 10% fetal bovine serum, Sodium pyruvate, Sodium bicarbonate, L-glutamine. The cells are harvested and transiently transfected with TEAD-responsive element luciferase reporter. Transfected cells are plated in 384-wells plate containing pre-diluted compounds. After 24 hours incubation at 37° C./5% CO2, assay plates were cooled down to RT and levelled to an equal volume per well, prior to the addition of 25 uL luciferase substrate SteadyLite (Perkin Elmer)/well. The plate was shaken for 10 min at 600 rpm, centrifuged for 1 min at 500 rpm and measured with an Envision reader (PerkinElmer). The amount of relative light units produced by the TEAD reporter is used to calculated percent of inhibition.
The percent of reporter inhibition was calculated in the presence of a positive control inhibitor (100% inhibition) versus a condition with the presence of the vehicle basal activity of the reporter (0% inhibition). The ability of a test compound to inhibit this activity was determined as: Percentage inhibition=[1−((RLU determined in the presence of vehicle−RLU determined for sample with test compound present) divided by (RLU determined in the presence of vehicle−RLU determined for sample with positive control inhibitor))]*100
The activities of the example compounds tested are depicted in the table below. The activity ranges A, B and C refer to EC50 values in the reporter gene assay as described as follows: “A”: EC50<1 μM; “B”: 1 μM s EC50≤20 μM and “C”: EC50>20 μM, NT=not tested.

Structure (SMILES)	EC50 [µM]
CNS(=O)(=O)CCNc1ccc(-c2cccc(C(F)(F)F)c2)cc1-c1ccn(Cc2cccnc2)n1 [compound 089]	< 1
CNS(=O)(=O)CCNc1ccc(-c2cccc(OC)c2)cc1-c1ccn(Cc2cccnc2)n1 [compound 090, 2-((3′-methoxy-3-(1-(pyridin-3-ylmethyl)-1H-pyrazol-3-yl)-[1,1′-biphenyl]-4-yl)amino)-N-methylethane-1-sulfonamide]	< 1
CNS(=O)(=O)CCNc1ccc(-c2cc(F)ccc2F)cc1-c1ccn(Cc2cccnc2)n1 [compound 092, 2-((2′,5′-difluoro-3-(1-(pyridin-3-ylmethyl)-1H-pyrazol-3-yl)-[1,1′-biphenyl]-4-yl)amino)-N-methylethane-1-sulfonamide]	< 1
CNS(=O)(=O)CCNc1ccc(-c2cccnc2)cc1-c1ccn(Cc2cccnc2)n1 [compound 094, N-methyl-2-((4-(pyridin-3-yl)-2-(1-(pyridin-3-ylmethyl)-1H-pyrazol-3-yl)phenyl)amino)ethane-1-sulfonamide]	1 to 20
CNS(=O)(=O)CCNc1ccc(C2CCCCC2)cc1-c1ccn(Cc2cccnc2)n1 [compound 095, 2-((4-cyclohexyl-2-(1-(pyridin-3-ylmethyl)-1H-pyrazol-3-yl)phenyl)amino)-N-methylethane-1-sulfonamide]	< 1
CNS(=O)(=O)CCNc1ccc(-c2ccn(C)n2)cc1-c1ccn(Cc2cccnc2)n1 [compound 096, N-methyl-2-((4-(1-methyl-1H-pyrazol-3-yl)-2-(1-(pyridin-3-ylmethyl)-1H-pyrazol-3-yl)phenyl)amino)ethane-1-sulfonamide]	1 to 20
CNS(=O)(=O)CCNc1ccc(-c2ccc(C(F)F)cc2)cc1-c1ccn(Cc2cccnc2)n1 [compound 097, 2-((4′-(difluoromethyl)-3-(1-(pyridin-3-ylmethyl)-1H-pyrazol-3-yl)-[1,1′-biphenyl]-4-yl)amino)-N-methylethane-1-sulfonamide]	< 1
CNS(=O)(=O)CCNc1ccc(-c2ccc(OC(F)(F)F)cc2)cc1-c1ccn(Cc2cccnc2)n1 [compound 098, N-methyl-2-((3-(1-(pyridin-3-ylmethyl)-1H-pyrazol-3-yl)-4′-(trifluoromethoxy)-[1,1′-biphenyl]-4-yl)amino)ethane-1-sulfonamide]	< 1
CNS(=O)(=O)CCNc1ccc(-c2ccc(OC(F)F)cc2)cc1-c1ccn(Cc2cccnc2)n1 [compound 099, 2-((4′-(difluoromethoxy)-3-(1-(pyridin-3-ylmethyl)-1H-pyrazol-3-yl)-[1,1′-biphenyl]-4-yl)amino)-N-methylethane-1-sulfonamide]	< 1
CNS(=O)(=O)CCNc1ccc(-c2ccc(S(F)(F)(F)(F)F)cc2)cc1-c1ccn(Cc2cccnc2)n1 [compound 100, 2-((4′-(2,2-difluoro-2-methyl-2l6-trifluoran-2-yl)-3-(1-(pyridin-3-ylmethyl)-1H-pyrazol-3-yl)-[1,1′-biphenyl]-4-yl)amino)-N-methylethane-1-sulfonamide]	< 1
CNS(=O)(=O)CCNc1ccc(-c2cc(F)cc(F)c2)cc1-c1ccn(Cc2cccnc2)n1 [compound 101, 2-((3′,5′-difluoro-3-(1-(pyridin-3-ylmethyl)-1H-pyrazol-3-yl)-[1,1′-biphenyl]-4-yl)amino)-N-methylethane-1-sulfonamide]	< 1
CNS(=O)(=O)CCNc1ccc(-c2ccc(C(F)(F)F)cc2)cc1-c1ccn(Cc2cccc(F)c2)n1 [compound 103, 2-((3-(1-(3-fluorobenzyl)-1H-pyrazol-3-yl)-4′-(trifluoromethyl)-[1,1′-biphenyl]-4-yl)amino)-N-methylethane-1-sulfonamide]	< 1
CNS(=O)(=O)CCNc1ccc(-c2ccccc2)cc1-c1ccn(Cc2cccc(C#N)c2)n1 [compound 104, 2-((3-(1-(3-cyanobenzyl)-1H-pyrazol-3-yl)-[1,1′-biphenyl]-4-yl)amino)-N-methylethane-1-sulfonamide]	< 1
CNS(=O)(=O)CCNc1ccc(-c2ccc(C(F)(F)F)cc2)cc1-c1ccn(CCOC)n1 [compound 105, 2-((3-(1-(2-methoxyethyl)-1H-pyrazol-3-yl)-4′-(trifluoromethyl)-[1,1′-biphenyl]-4-yl)amino)-N-methylethane-1-sulfonamide]	< 1

Now from value to compound:

EC50 [µM]	Structure (SMILES)
< 1	CS(=N)(=O)CCNc1ccc(-c2ccccc2)cc1-c1ccn(Cc2cccnc2)n1 (stereo not drawn) [compound 066, imino(methyl)(2-((3-(1-(pyridin-3-ylmethyl)-1H-pyrazol-3-yl)-[1,1′-biphenyl]-4-yl)amino)ethyl)-λ^6-sulfanone]
1 to 20	CNS(=O)(=O)CCN(C)c1ccc(-c2ccccc2)cc1-c1ccn(Cc2cccnc2)n1 [compound 067, N-methyl-2-(methyl(3-(1-(pyridin-3-ylmethyl)-1H-pyrazol-3-yl)-[1,1′-biphenyl]-4-yl)amino)ethane-1-sulfonamide]
1 to 20	O=S1(=O)CCC(Nc2ccc(-c3ccccc3)cc2-c2ccn(Cc3cccnc3)n2)CC1 [compound 068, 4-((3-(1-(pyridin-3-ylmethyl)-1H-pyrazol-3-yl)-[1,1′-biphenyl]-4-yl)amino)tetrahydro-2H-thiopyran-1,1-dioxide]
1 to 20	O=S1(=O)CCC(Nc2cc(-c3ccccc3)cc(-c3ccn(Cc4cccnc4)n3)c2)CC1 [compound 069, 4-((5-(1-(pyridin-3-ylmethyl)-1H-pyrazol-3-yl)-[1,1′-biphenyl]-3-yl)amino)tetrahydro-2H-thiopyran 1,1-dioxide]
< 1	c1ccc(-c2ccc(NC3CCCOC3)c(-c3ccn(Cc4cccnc4)n3)c2)cc1 (stereo not drawn) [compound 070, N-(3-(1-(pyridin-3-ylmethyl)-1H-pyrazol-3-yl)-[1,1′-biphenyl]-4-yl)tetrahydro-2H-pyran-3-amine]
1 to 20	c1ccc(-c2cc(NC3CCCOC3)cc(-c3ccn(Cc4cccnc4)n3)c2)cc1 (stereo not drawn) [compound 071, N-(5-(1-(pyridin-3-ylmethyl)-1H-pyrazol-3-yl)-[1,1′-biphenyl]-3-yl)tetrahydro-2H-pyran-3-amine]
1 to 20	O=C1CC(Nc2ccc(-c3ccccc3)cc2-c2ccn(Cc3cccnc3)n2)CCN1 (stereo not drawn) [compound 072, 4-((3-(1-(pyridin-3-ylmethyl)-1H-pyrazol-3-yl)-[1,1′-biphenyl]-4-yl)amino)piperidin-2-one]
1 to 20	O=C1CC(Nc2cc(-c3ccccc3)cc(-c3ccn(Cc4cccnc4)n3)c2)CCN1 (stereo not drawn) [compound 073, 4-((5-(1-(pyridin-3-ylmethyl)-1H-pyrazol-3-yl)-[1,1′-biphenyl]-3-yl)amino)piperidin-2-one]
1 to 20	CNC(=O)CNc1ccc(-c2ccccc2)cc1-c1ccn(Cc2cccnc2)n1 [compound 074, N-methyl-2-((3-(1-(pyridin-3-ylmethyl)-1H-pyrazol-3-yl)-[1,1′-biphenyl]-4-yl)amino)acetamide]
1 to 20	CNC(=O)CNc1cc(-c2ccccc2)cc(-c2ccn(Cc3cccnc3)n2)c1 [compound 076, N-methyl-2-((5-(1-(pyridin-3-ylmethyl)-1H-pyrazol-3-yl)-[1,1′-biphenyl]-3-yl)amino)acetamide]
< 1	CCC(=O)NCCNc1ccc(-c2ccccc2)cc1-c1ccn(Cc2cccnc2)n1 [compound 077]
> 20	O=C(O)CNc1cc(-c2ccccc2)cc(-c2ccn(Cc3cccnc3)n2)c1 [compound 078, (5-(1-(pyridin-3-ylmethyl)-1H-pyrazol-3-yl)-[1,1′-biphenyl]-3-yl)glycine]
1 to 20	CNS(=O)(=O)CCC(=O)Nc1ccc(-c2ccccc2)cc1-c1ccn(Cc2cccnc2)n1 [compound 079, 3-(N-methylsulfamoyl)-N-(3-(1-(pyridin-3-ylmethyl)-1H-pyrazol-3-yl)-[1,1′-biphenyl]-4-yl)propanamide]
1 to 20	C=CC(=O)Nc1ccc(-c2ccccc2)cc1-c1ccn(Cc2cccnc2)n1 [compound 080, N-(3-(1-(pyridin-3-ylmethyl)-1H-pyrazol-3-yl)-[1,1′-biphenyl]-4-yl)acrylamide]
1 to 20	N#CCC(=O)Nc1ccc(-c2ccccc2)cc1-c1ccn(Cc2cccnc2)n1 [compound 081, 2-cyano-N-(3-(1-(pyridin-3-ylmethyl)-1H-pyrazol-3-yl)-[1,1′-biphenyl]-4-yl)acetamide]
1 to 20	CNS(=O)(=O)CC(=O)Nc1ccc(-c2ccccc2)cc1-c1ccn(Cc2cccnc2)n1 [compound 082, 2-(N-methylsulfamoyl)-N-(3-(1-(pyridin-3-ylmethyl)-1H-pyrazol-3-yl)-[1,1′-biphenyl]-4-yl)acetamide]
1 to 20	N#CCCNc1ccc(-c2ccccc2)cc1-c1ccn(Cc2cccnc2)n1 [compound 084, 3-((3-(1-(pyridin-3-ylmethyl)-1H-pyrazol-3-yl)-[1,1′-biphenyl]-4-yl)amino)propanenitrile]
< 1	N#CCNc1ccc(-c2ccccc2)cc1-c1ccn(Cc2cccnc2)n1 [compound 085, 2-((3-(1-(pyridin-3-ylmethyl)-1H-pyrazol-3-yl)-[1,1′-biphenyl]-4-yl)amino)acetonitrile]
< 1	CNS(=O)(=O)CCNc1ccc(-c2cccc(Cl)c2)cc1-c1ccn(Cc2cccnc2)n1 [compound 091, 2-((3′-chloro-3-(1-(pyridin-3-ylmethyl)-1H-pyrazol-3-yl)-[1,1′-biphenyl]-4-yl)amino)-N-methylethane-1-sulfonamide]
